# From US7699995B2, “Water treatment method” (priority 2006, dated 2010)
# Where two headings read alike, the source gives them in different places.
# Legend:
# [1] = test system: Pseudomonas pseudoalcaligenes #15; assay: MIC at pH 7.1 or pH 9.0, half strength TSB; type: cell-based; conditions: Ectopseudomonas oleovorans, 72 h, three days, read-out: Minimum Inhibitory Concentration
# Experimental: (§1) Minimum inhibitory concentration (MIC) studies were conducted to determine the lowest level of biocide required to inhibit growth of bacteria and fungi. Tests were conducted in 96-well microtiter plates. Biocides were added to growth media in the plates and serially diluted to obtain a range of concentrations. Tests were conducted in one-half strength trypticase soy broth (TSB; adjusted to pH 7.1 or pH 9.0). Bacteria and fungi were added to samples at 10^6 colony forming units per ml and incubated at 30° C. for three days. MIC values were determined visually on a growth no-growth basis.
# Rhodotorula rubra #156 = assay: MIC at pH 7.1 or pH 9.0, half strength TSB; type: cell-based; conditions: Rhodotorula, 72 h, three days, read-out: Minimum Inhibitory Concentration
# Experimental: as §1
# Streptomyces sp. #130 = assay: MIC at pH 7.1 or pH 9.0, half strength TSB; type: cell-based; conditions: Streptomyces, 72 h, three days, read-out: Minimum Inhibitory Concentration
# Experimental: as §1
# Pseudomonas diminuta #99 = assay: MIC at pH 7.1 or pH 9.0, half strength TSB; type: cell-based; conditions: Brevundimonas diminuta, 72 h, three days, read-out: Minimum Inhibitory Concentration
# Experimental: as §1
# Alcaligenes faecalis #93 = assay: MIC at pH 7.1 or pH 9.0, half strength TSB; type: cell-based; conditions: Alcaligenes faecalis, 72 h, three days, read-out: Minimum Inhibitory Concentration
# Experimental: as §1
# [2] = test system: Pseudomonas aeruginosa #13; assay: MIC at pH 7.1 or pH 9.0, half strength TSB; type: cell-based; conditions: Pseudomonas aeruginosa, 72 h, three days, read-out: Minimum Inhibitory Concentration
# Experimental: as §1
# Aspergillus niger #128 = assay: MIC at pH 7.1 or pH 9.0, half strength TSB; type: cell-based; conditions: Aspergillus niger, 72 h, three days, read-out: Minimum Inhibitory Concentration
# Experimental: as §1
# Aspergillus sp. #120 = assay: MIC at pH 7.1 or pH 9.0, half strength TSB; type: cell-based; conditions: Aspergillus, 72 h, three days, read-out: Minimum Inhibitory Concentration
# Experimental: as §1
# [3] = test system: Alcaligenes xylosoxydans #95; assay: MIC at pH 7.1 or pH 9.0, half strength TSB; type: cell-based; conditions: Achromobacter xylosoxidans, 72 h, three days, read-out: Minimum Inhibitory Concentration
# Experimental: as §1
# [4] = Stability in pH 9 buffer solution at 70° C. (HPLC)
# Experimental: pH 9 buffer containing 0.069 M boric acid, 0.017 M citric acid, 0.066 M sodium phosphate was prepared in distilled water. Biocide was dosed into the pH 9 buffer solution and stored at 70° C. in a heat block. The samples were examined for active ingredient concentration at the time points after 5 hours, and 1, 3, 7, 23, 30, 35 and 56 days. Initial biocide doses were 166 ppm MI, 199 ppm BIT and 150 ppm BNPD.
# The samples were evaluated for active ingredient concentration via High Pressure Liquid Chromatography. Samples were taken from the heating blocks and allowed to cool to room temperature for 30 minutes. The samples were then diluted 1:20 in deionized water by adding 9.5 ml of deionized water to 0.5 grams of the samples in a 25 ml glass sample vial. The samples were mixed for 15 seconds and transferred to HPLC sample vials for analysis.
# [5] = test system: natural, resident populations of Mycobacterium; assay: Eradication of mycobacteria in naturally contaminated in-use metalworking fluids; type: cell-based
# Experimental: A comparative study was conducted evaluating six metalworking fluid biocides versus natural, resident populations of Mycobacterium from six in-use metalworking fluids. CMIT/MIT, CMIT/MIT/MCC, MIT, BIT, triazine, and PCMC microbicides were tested under controlled laboratory conditions to determine their efficacy at the maximum manufacturer's recommended dose rate (Table 2). The metalworking fluids were known to contain high levels of mycobacteria prior to dosing with biocides. Samples were then dosed with biocides, incubated with agitation at room temperature and viable mycobacteria counts determined after 48 hours by plating onto Middlebrook 7H10 medium, with Tween 80, glycerin, cyclohexamide, chloramphenicol, and gentamycin to suppress the growth of unwanted microorganisms.
# The six metalworking fluid samples containing mycobacteria study from Example 7, were also tested using the same biocides with dosing at 50% of the maximum manufacturer's recommended rate (Table 2) under the same conditions. These metalworking fluids were known to contain high levels of mycobacteria prior to dosing with biocides. Samples were then dosed with biocides, incubated with agitation at room temperature and viable mycobacteria counts determined after 48 hours by plating onto Middlebrook 7H10 medium, with Tween 80, glycerin, cyclohexamide, chloramphenicol, and gentamycin to suppress the growth of unwanted microorganisms.
# [6] = Stability with oxidizing and reducing agents at pH 7 and pH 9 (HPLC); type: physicochemical
# Experimental: Oxidizing agents (2 mM) included hydrogen peroxide (H2O2; 68 ppm), t-butyl hydrogen peroxide (t-BHP; 180 ppm), and potassium persulfate (K2O8S2; 540 ppm). Reducing agents (2 mM) included iso-ascorbic acid (IAA; 352 ppm) and sodium bisulfite (NaHSO3; 208 ppm). Biocides were tested at 1 mM concentrations, representing 115 ppm MI and […].
# The pH 7.0 buffer contained 0.00426% monopotassium phosphate plus 0.019% magnesium chloride hexahydrate. The pH 9.0 buffer contained 0.0046 M hydrochloric acid plus 0.013 M borax. Stock solutions of the redox agents were prepared and added to aliquots of each buffer to give 2 mM concentrations. The biocides were then added to give 1 mM concentrations. The samples were stored at 25° C. and analyzed for biocide level by HPLC at 0, 2 and 8 days.
# [7] = K-persulfate 2 mM, pH 7, 25° C.
# [8] = K-persulfate 2 mM, pH 9, 25° C.
# [9] = Na bisulfite 2 mM, pH 7, 25° C.
# [10] = Na bisulfite 2 mM, pH 9, 25° C.
compound,measurement,setting,value
"Cn1sccc1=O [MI, 2-methyl-4-isothiazolin-3-one]",MIC,"[1]; pH 7.1, 30° C.",25 µg/mL
same,MIC,"[1]; pH 9.0, 30° C.",25 µg/mL
same,MIC,"Rhodotorula rubra #156; pH 7.1, 30° C.",25 µg/mL
same,MIC,"Rhodotorula rubra #156; pH 9.0, 30° C.",25 µg/mL
same,MIC,"Streptomyces sp. #130; pH 7.1, 30° C.",3.2 µg/mL
same,MIC,"Streptomyces sp. #130; pH 9.0, 30° C.",3.2 µg/mL
same,MIC,"Pseudomonas diminuta #99; pH 7.1, 30° C.",12.5 µg/mL
same,MIC,"Pseudomonas diminuta #99; pH 9.0, 30° C.",6.3 µg/mL
same,MIC,"Alcaligenes faecalis #93; pH 7.1, 30° C.",3.2 µg/mL
same,MIC,"Alcaligenes faecalis #93; pH 9.0, 30° C.",6.3 µg/mL
same,MIC,"[2]; pH 7.1, 30° C.",12.5 µg/mL
same,MIC,"[2]; pH 9.0, 30° C.",6.3 µg/mL
same,MIC,"Aspergillus niger #128; pH 7.1, 30° C.",100 µg/mL
same,MIC,"Aspergillus niger #128; pH 9.0, 30° C.",100 µg/mL
same,MIC,"Aspergillus sp. #120; pH 7.1, 30° C.",50 µg/mL
same,MIC,"Aspergillus sp. #120; pH 9.0, 30° C.",50 µg/mL
same,MIC,"[3]; pH 7.1, 30° C.",12.5 µg/mL
same,MIC,"[3]; pH 9.0, 30° C.",25 µg/mL
same,Percent Remaining after: 5 hr,[4]; 5 hr,96%
same,Percent Remaining after: 1 day,[4]; 1 day,96%
same,Percent Remaining after: 3 day,[4]; 3 day,96%
same,Percent Remaining after: 7 day,[4]; 7 day,93%
same,Percent Remaining after: 23 day,[4]; 23 day,95%
same,Percent Remaining after: 30 day,[4]; 30 day,101%
same,Percent Remaining after: 35 day,[4]; 35 day,93%
same,Percent Remaining after: 56 day,[4]; 56 day,102%
same,loss of active ingredient,[4]; day 56,no loss
same,Percent Remaining after: 0,[4]; time 0,100%
same,Log Reduction in Mycobacterial Counts versus Control (no biocide),"[5]; Fluid 1, 48 hours, 50% of recommended maximum dose",3.48 log
same,Log Reduction in Mycobacterial Counts versus Control (no biocide),"[5]; Fluid 1, 48 hours, 100% of recommended maximum dose",5.88 log
same,Log Reduction in Mycobacterial Counts versus Control (no biocide),"[5]; Fluid 2, 48 hours, 50% of recommended maximum dose",3.80 log
same,Log Reduction in Mycobacterial Counts versus Control (no biocide),"[5]; Fluid 2, 48 hours, 100% of recommended maximum dose",5.00 log
same,Log Reduction in Mycobacterial Counts versus Control (no biocide),"[5]; Fluid 3, 48 hours, 50% of recommended maximum dose",0.00 log
same,Log Reduction in Mycobacterial Counts versus Control (no biocide),"[5]; Fluid 3, 48 hours, 100% of recommended maximum dose",2.00 log
same,Log Reduction in Mycobacterial Counts versus Control (no biocide),"[5]; Fluid 4, 48 hours, 50% of recommended maximum dose",2.00 log
same,Log Reduction in Mycobacterial Counts versus Control (no biocide),"[5]; Fluid 4, 48 hours, 100% of recommended maximum dose",3.64 log
same,Log Reduction in Mycobacterial Counts versus Control (no biocide),"[5]; Fluid 5, 48 hours, 50% of recommended maximum dose",0.06 log
same,Log Reduction in Mycobacterial Counts versus Control (no biocide),"[5]; Fluid 5, 48 hours, 100% of recommended maximum dose",1.90 log
same,Log Reduction in Mycobacterial Counts versus Control (no biocide),"[5]; Fluid 6, 48 hours, 50% of recommended maximum dose",1.78 log
same,Log Reduction in Mycobacterial Counts versus Control (no biocide),"[5]; Fluid 6, 48 hours, 100% of recommended maximum dose",3.88 log
same,kill (minimum degree of efficacy),"[5]; in all six samples of contaminated fluids, maximum recommended dose",> 90%
same,% Remaining after 2 Days,"[6]; H2O2 2 mM, pH 7, 25° C.",100%
same,% Remaining after 8 Days,"[6]; H2O2 2 mM, pH 7, 25° C.",100%
same,% Remaining after 2 Days,"[6]; H2O2 2 mM, pH 9, 25° C.",94%
same,% Remaining after 8 Days,"[6]; H2O2 2 mM, pH 9, 25° C.",88%
same,% Remaining after 2 Days,"[6]; IAA 2 mM, pH 7, 25° C.",100%
same,% Remaining after 8 Days,"[6]; IAA 2 mM, pH 7, 25° C.",96%
same,% Remaining after 2 Days,"[6]; IAA 2 mM, pH 9, 25° C.",105%
same,% Remaining after 8 Days,"[6]; IAA 2 mM, pH 9, 25° C.",103%
same,% Remaining after 2 Days,[6]; [7],90%
same,% Remaining after 8 Days,[6]; [7],75%
same,% Remaining after 2 Days,[6]; [8],93%
same,% Remaining after 8 Days,[6]; [8],73%
same,% Remaining after 2 Days,[6]; [9],29%
same,% Remaining after 8 Days,[6]; [9],26%
same,% Remaining after 2 Days,[6]; [10],70%
same,% Remaining after 8 Days,[6]; [10],78%
same,% Remaining after 2 Days,"[6]; no redox agent, pH 7, 25° C.",100%
same,% Remaining after 8 Days,"[6]; no redox agent, pH 7, 25° C.",100%
same,% Remaining after 2 Days,"[6]; no redox agent, pH 9, 25° C.",100%
same,% Remaining after 8 Days,"[6]; no redox agent, pH 9, 25° C.",100%
same,% Remaining after 2 Days,"[6]; t-BHP 2 mM, pH 7, 25° C.",99%
same,% Remaining after 8 Days,"[6]; t-BHP 2 mM, pH 7, 25° C.",102%
same,% Remaining after 2 Days,"[6]; t-BHP 2 mM, pH 9, 25° C.",98%
same,% Remaining after 8 Days,"[6]; t-BHP 2 mM, pH 9, 25° C.",96%
